Patent US12729194B2, “Compounds for the treatment of human immunodeficiency virus” (priority 2019, dated 2026)

Tests used:
HIV-1 with HIV-1AD8 Env = assay: microbe, parasite or virus in culture; format: cell-based; conditions: for IC50: Human immunodeficiency virus 1, Cf2Th-CD4/CCR5 target cells, 48 hours, luciferase, means and standard errors of four experiments, read-out: 50% inhibitory concentration (IC50), AD8; for Potency of inhibition of HIV-1 infection (in words): Table 1 HIV-1 Envs
[1] = test system: envelope glycoproteins of the amphotropic murine leukemia virus (AMLV); assay: microbe, parasite or virus in culture; format: cell-based; conditions: Cf2Th-CD4/CCR5 target cells, 48 hours, luciferase, specificity control, read-out: 50% inhibitory concentration (IC50), AMLV
[2] = test system: HIV-1 with HIV-1JR-FL Env; assay: microbe, parasite or virus in culture; format: cell-based; conditions: Human immunodeficiency virus 1; Cf2Th-CD4/CCR5 target cells, 48 hours, luciferase; means and standard errors of four experiments; read-out: 50% inhibitory concentration (IC50), JR-FL
[3] = test system: HIV-1 with JR-FL S375W Env; format: cell-based; conditions: Cf2Th-CD4/CCR5 target cells, 48 hours, luciferase; read-out: 50% inhibitory concentration (IC50), JR-FL S375W
HIV-1 with BG505 Env = assay: microbe, parasite or virus in culture; format: cell-based; conditions: Human immunodeficiency virus 1; Cf2Th-CD4/CCR5 target cells, 48 hours, luciferase; means and standard errors of four experiments; read-out: 50% inhibitory concentration (IC50), BG505
HIV-1AD8 Env on VLPs [4] = assay: Reversibility of compound effects on VLP Env conformation (19b antibody recognition after washing); conditions: for Durability / reversibility of Env conformational effects (in words): after washing
Protocol: (§1) Characterization of VLP-associated Env: To prepare VLPs with HIV-1AD8 Env, 150-mm dishes of 30-40% confluent A549-Gag/Env cells were seeded and, on the following day, treated with 2 μg/ml doxycycline. Approximately 72 hours after induction, cell supernatants were harvested and cleared by low-speed centrifugation (500×g for 15 minutes at 4° C.) and 0.45-μ filtration. VLPs were pelleted by centrifugation at 100,000×g for one hour at 4° C. The resuspended VLP preparation was clarified by low-speed centrifugation. BMS-806 and compounds described herein were added to the clarified VLP-containing suspensions. In some cases, the VLP-compound mixtures were irradiated with a 100-watt, 365-nm ultraviolet (UV) lamp for 10 minutes at room temperature. For all UV studies, exposure of the samples to visible light was minimized.
For studies of the reversibility of effects, the compounds were added to the VLPs and mixed for several seconds at room temperature. Then the VLPs were pelleted (20,000×g for 30 minutes at 4° C.) twice, washing with 1.5 ml PBS with 2% DMSO. The pelleted VLPs were resuspended in 1 ml PBS with 2% DMSO and incubated at room temperature for various lengths of time (20 minutes—3 weeks). Control VLPs were incubated in the continued presence of the compounds at room temperature for the same length of time. Then the VLPs were pelleted (20,000×g for 30 minutes at 4° C.) and the pellet incubated with 1.5% Triton X-100 for 30 minutes at 4° C. The VLP lysates were centrifuged (20,000×g for 30 minutes at 4° C.) and the supernatants were incubated with antibodies (10 μg/ml) in a 50-μl volume with 25 mg/ml of Protein A-Sepharose beads for one hour at 4° C. The beads were pelleted (1000 rpm for 1 minute at room temperature) and washed three times with 1 ml wash buffer with 1% Triton X-100. The beads were suspended in NuPAGE LDS Sample Buffer (ThermoFisher), boiled and analyzed by Western blot, as described above.
The BMS-806-induced decrease in binding of the 19b anti-V3 antibody can be used as an indicator of BMS-806-Env binding, allowing estimation of the stability of the Env-compound complex. BMS-806 and BMS-529 were incubated with the HIV-1AD8 Env on VLPs. The VLPs were then washed and incubated at room temperature for various lengths of time in a buffer with (+/+) or without (+/−) compound. After this incubation, Env conformation was assessed using the 19b anti-V3 antibody, the 2G12 antibody (the binding of which is not affected by BMS-806), and a negative control human immunoglobulin (hIgG) preparation. 19b recognition of Env in the washed samples (+/−) was compared with those in the samples continuously incubated with the compound (+/+) and the untreated samples (−) (FIG. 4). […] Despite this slow rate of dissociation of compounds described herein from Env, the binding and the consequent effects of these compounds on Env conformation appear to be reversible.

HIV-1AD8 Env on VLPs [5] = assay: Shedding of gp120 from VLP Env; conditions: 4° C. and 37° C., 4 days, no detergent
Protocol: Shedding of gp120 from VLP Env: The effect of compounds on the spontaneous shedding of gp120 from VLP Env was evaluated. VLPs with the wild-type HIV-1AD8 Env were prepared from the supernatants of A549-Gag/Env cells, as described above. The VLPs were suspended in PBS, to which was added either DMSO or a compound described herein. An aliquot of the VLP suspension in PBS/DMSO was processed as described below to serve as a Day 0 control. The VLP suspensions were incubated for 4 days at 4° C., room temperature or 37° C. (with gentle rocking). Then the VLPs were pelleted (100,000×g for 30 min at 4° C.). The pellets and supernatants were boiled in LDS sample buffer and analyzed by Western blotting with either 1:2000 goat anti-gp120 polyclonal antibody (ThermoFisher) and HRP-conjugated rabbit anti-goat IgG antibody, or with 1:5000 rabbit anti-Gag p55/p24/p17 antibody (Abcam) and HRP-conjugated goat anti-rabbit IgG antibody (Abcam).

VLP HIV-1AD8 Env = assay: Antibody recognition of VLP-associated Env; conditions: compound plus UV irradiation
Protocol: as §1
For studies of the binding of ligands (antibodies, CD4-Ig and C34-Ig) to detergent-solubilized VLP Env, VLPs prepared as described above were pelleted (20,000×g for 30 minutes at 4° C.). The pellet was incubated with 1.5% Triton X-100 for 30 minutes at 4° C. The VLP lysates were centrifuged (20,000×g for 30 minutes at 4° C.) and the supernatants were incubated with ligands (10 μg/ml) in a 50-μl volume with 25 mg/ml of Protein A-Sepharose beads for one hour at 4° C. The beads were pelleted (1000 rpm for 1 minute at room temperature), washed three times with 1 ml wash buffer with 1% Triton X-100, suspended in LDS Sample Buffer and analyzed by Western blot, as described above.
In a second assay format, the effect of the compounds was analyzed on the binding of antibodies to Env on intact VLPs, in the absence of detergent. In this case, VLPs in A549-Gag/Env supernatants, clarified as described above, were pelleted at 100,000×g for one hour at 4° C. The pellet was resuspended in PBS and the VLPs pelleted at 20,000×g for 30 minutes at 4° C. The VLPs were resuspended in PBS and incubated with antibodies (10 μg/ml) in a 100-μl volume for one hour at 4° C. The VLPs were then pelleted (20,000×g for 30 minutes at 4° C.) and washed with PBS three times. The VLP pellet was then solubilized in 1.5% Triton X-100 for 30 minutes at 4° C., after which the VLP lysates were clarified by centrifugation at 20,000×g for 30 minutes at 4° C. The supernatants were incubated with 50 μl of Protein A-Sepharose beads for one hour at 4° C. The beads were pelleted (1000 rpm for 1 minute at room temperature), washed three times with 1 ml wash buffer with 1% Triton X-100, suspended in LDS Sample Buffer, and analyzed by Western blot, as described above.

COc1ccc(-c2ccc(CNC(=O)c3ccccc3)o2)c2[nH]cc(C(=O)C(=O)N3CCN(C(=O)c4ccccc4)CC3)c12 [AEG-III-032]
IC50 (HIV-1 with HIV-1AD8 Env): 0.36 nM | Potency of inhibition of HIV-1 infection (in words) (HIV-1 with HIV-1AD8 Env): potencies comparable to that of BMS-806 | IC50 [1]: > 100 nM | IC50 [2]: 0.6 nM | IC50 [3]: > 100 nM | IC50 (HIV-1 with BG505 Env): 1.5 nM

O=C(Nc1cccc2c(C(=O)C(=O)N3CCN(C(=O)c4ccccc4)CC3)c[nH]c12)c1ccccc1 [AEG-III-096]
IC50 (HIV-1 with HIV-1AD8 Env): 2.4 nM | Potency of inhibition of HIV-1 infection (in words) (HIV-1 with HIV-1AD8 Env): potencies comparable to that of BMS-806 | IC50 [1]: > 100 nM | IC50 [2]: 0.9 nM | IC50 [3]: > 100 nM | Durability / reversibility of Env conformational effects (in words) (HIV-1AD8 Env on VLPs [4]): much faster reversibility

COc1cnc(-n2cnc(C)n2)c2[nH]cc(C(=O)C(=O)N3CCN(C(=O)c4ccccc4)CC3)c12 [BMS-529, reference compound]
Time until conformational effects on Env are reversed after washing (HIV-1AD8 Env on VLPs [4]; VLPs in PBS with 2% DMSO, room temperature): 2 to 4 days | Conformational effect on 19b binding after washing (HIV-1AD8 Env on VLPs [4]; twenty-four hours after washing, room temperature): still apparent

COc1ccc(-c2ccc(CNC(=O)c3ccc(C4(C(F)(F)F)N=N4)cc3)o2)c2[nH]cc(C(=O)C(=O)N3CCN(C(=O)c4ccccc4)CC3)c12 [AEG-II-159]
IC50 (HIV-1 with HIV-1AD8 Env): 0.2 nM | IC50 [1]: > 100 nM | IC50 [2]: 1.6 nM | IC50 [3]: > 100 nM | IC50 (HIV-1 with BG505 Env): 0.8 nM | Durability / reversibility of Env conformational effects (in words) (HIV-1AD8 Env on VLPs [4]): at least three weeks

O=C(Nc1cccc2c(C(=O)C(=O)N3CCN(C(=O)c4ccccc4)CC3)c[nH]c12)c1ccc(C2(C(F)(F)F)N=N2)cc1 [AEG-III-087]
IC50 (HIV-1 with HIV-1AD8 Env): 0.06 nM | Spontaneous shedding of gp120 into the VLP supernatant (HIV-1AD8 Env on VLPs [5]): decreased the shedding of gp120 | IC50 [1]: > 100 nM | IC50 [2]: 0.1 nM | VLP Env recognition by poorly neutralizing antibodies two weeks after treatment (VLP HIV-1AD8 Env; washed, two weeks without compound): lowered Env recognition by poorly neutralizing antibodies | VLP Env recognition by bNAbs two weeks after treatment (VLP HIV-1AD8 Env; PG9, PGT145, PGT151, 35022, 2F5, 4E10, 10E8): this increase was not seen | IC50 [3]: > 100 nM | IC50 (HIV-1 with BG505 Env): 1.9 nM
